According to patent publication US20100152622A1, “MOTOR PHENOMENON MEASUREMENT” (priority 2007, published 2010):
“Also recorded” adds a separate entry of the source.

Assays:
schizophrenia patients [1] = experiment: Handwriting velocity scaling (VS) in patients grouped by antipsychotic medication; type: in vivo, human; conditions: lower VS scores indicate more parkinsonian bradykinesia; loops of 1, 2, 4 cm
Description: Lower VS scores indicate more parkinsonian bradykinesia.
This measure expresses the extent to which movements are sped up when size is increased.
One simple and direct measure is the increase of a velocity measure in one stroke (e.g., in cm/s) divided by the increase of size (e.g., in cm). This resulting velocity scaling has a unit of size/duration/size or 1/duration.

schizophrenia patients [2] = conditions: for average normalized jerk (ANJ) score compared between medication groups / average normalized jerk (ANJ) score compared with healthy subjects: handwriting dysfluency; for average normalized jerk (ANJ) score compared between medication groups: marker of TD/EPS, 9 handwriting tasks, dominant hand, 1, 2, 4 cm, versus other medications; for average normalized jerk (ANJ) score compared with healthy subjects: medication group versus normal healthy subjects
schizophrenia patients [3] = conditions: in vivo
schizophrenia patients [4] = experiment: Observer-based EPS severity ratings (SAEPS, AIMS, BARS); type: in vivo, human
dopamine receptor = dopamine receptor (Homo sapiens, UniProt P14416); conditions: PET in schizophrenic patients before and after treatment; cited from earlier work
dopamine receptor, sequence (P14416 whole entry): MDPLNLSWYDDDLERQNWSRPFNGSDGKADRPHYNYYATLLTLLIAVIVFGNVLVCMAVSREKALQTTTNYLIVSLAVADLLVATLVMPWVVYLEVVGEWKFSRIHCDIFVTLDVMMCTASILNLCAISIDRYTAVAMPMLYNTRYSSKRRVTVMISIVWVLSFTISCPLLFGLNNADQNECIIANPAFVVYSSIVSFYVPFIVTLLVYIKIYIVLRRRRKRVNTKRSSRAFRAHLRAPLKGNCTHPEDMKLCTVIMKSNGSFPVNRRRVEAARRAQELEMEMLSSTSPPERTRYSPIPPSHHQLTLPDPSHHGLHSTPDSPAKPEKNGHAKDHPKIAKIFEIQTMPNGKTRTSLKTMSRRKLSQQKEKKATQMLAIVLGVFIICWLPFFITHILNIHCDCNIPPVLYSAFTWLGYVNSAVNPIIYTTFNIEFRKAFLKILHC

| Structure (SMILES) | velocity scaling (VS) score (slope of peak vertical velocity versus vertical size) compared between medication groups (schizophrenia patients [1]) | effect of antipsychotic type on average normalized jerk and peak velocity (schizophrenia patients [2]; collapsed across all 14 task conditions) | average normalized jerk (ANJ) score compared between medication groups (schizophrenia patients [2]) | average normalized jerk (ANJ) score compared with healthy subjects (schizophrenia patients [2]) | correlation (r) of peak vertical velocity with daily dose (schizophrenia patients [3]) | motor impairment quantified by handwriting movements (schizophrenia patients [3]) | observer-based EPS assessments: medicated versus unmedicated groups and relationship with dose (schizophrenia patients [4]; conventional ratings) | correlation between observer-based severity ratings and dose (schizophrenia patients [4]; p>0.05) | relationship between reduction in handwriting size (area) and dopamine receptor occupancy (dopamine receptor) |
| --- | --- | --- | --- | --- | --- | --- | --- | --- | --- |
| O=C1CCc2ccc(OCCCCN3CCN(c4cccc(Cl)c4Cl)CC3)cc2N1 [aripiprazole] | lower VS scores than those on olanzapine or quetiapine; also recorded: lower VS scores than those on other medications | doing worse than others | significantly higher ANJ | significantly higher ANJ scores than healthy subjects | – | – | – | – | – |
| OCCOCCN1CCN(C2=Nc3ccccc3Sc3ccccc32)CC1 [quetiapine] | – | – | significantly less abnormality than those treated with aripiprazole or risperidone | did not differ from normal healthy subjects | – | – | – | – | – |
| Cc1nc2n(c(=O)c1CCN1CCC(c3noc4cc(F)ccc34)CC1)CCCC2 [risperidone] | – | – | – | – | −0.45 | significant motor impairment | not able to detect differences between risperidone-medicated and unmedicated groups or a relationship with risperidone dose | no significant correlations | significant relationship between reduction in handwriting size (expressed by area) and dopamine receptor occupancy |
